From patent US20220249454A1, “INHIBITORS OF MONOCARBOXYLATE TRANSPORTERS FOR CANCER IMMUNOTHERAPY” (NIROGY THERAPEUTICS, INC., priority 2021, published 2022)

test system: panel of solid and haemotological tumor cell lines (e.g., Hs578t, SiHa, MDA-MB-231); assay: MTS cell proliferation assay (cytotoxicity); format: cell-based; settings: Table 2 (Group 2), 72-96 hours, 10 mM lactate medium or RPMI 1640 medium, cell line not stated
Method: The anti-proliferation effect of MCT inhibition was investigated across a panel of solid and haemotological tumor cell lines. Cells were routinely cultured in their appropriate growth medium. On day 1, between 10,000-25,000 cells/well (e.g., Hs578t: 15,000 cells/well, SiHa: 10,000 cells/well, and MDA-MB-231: 25,000 cells/well) were plated into 96-well plates. 100 μL. of phosphate buffered saline solution was added to the external wells to prevent media evaporation. Plates were incubated in growth medium overnight at 37° C. in the presence of 5% CO2. On day 2, dry weight compound stocks were dissolved to a concentration of 10 mM in 100% DMSO. Compounds were further diluted in the assay medium; 10 mM lactate medium (without glucose, pyruvate, and glutamine) or RPMI 1640 medium (without pyruvate and glutamine) to generate a final dose range of 1 nM to 10 μM. Growth medium in the 96-well plate was replaced with the assay medium (10 mM lactate medium or RPMI medium or appropriate medium), and compounds were added to each well in the plate at different concentrations via serial dilution or pre-prepared solutions in assay medium. Plates were then incubated at 37° C. in the presence of 5% CO2 for a further 72-96 hours. On day 2-5, assay media was changed to 100 uL of DMEM/F12 and 20 μL of CellTiter 96 AQ MTS reagent was added to each well and the plate was returned to the incubator for 1-2 hours. MTS is bioreduced by NADPH or NADH produced by dehydrogenase enzymes in metabolically active cells into a coloured formazan product that is soluble in tissue culture medium. The amount of coloured formazan product is directly proportional to the number of living cells in culture. The absorbance of the plates was read on a Spectramax M5e plate reader using […] measurement wavelength. Dose response curves were plotted and IC50 values were calculated using GraphPad Prism. The IC50 value is equivalent to the concentration of compound that causes 50% inhibition of growth calculated from the compound treated signal to the vehicle treated signal.
Cytotoxicity of selected compounds is listed in Table 1, where IC50: A=<1 uM; B=1-10 uM; C=>10 uM; and NT=Not Tested.

Question: With `CCOc1ccccc1NC(=O)N(C)c1cc2oc(=O)c(C(=O)O)cc2s1` [Compound 2.010, 2-(3-(2-ethoxyphenyl)-1-methylureido)-5-oxo-5H-thieno[3,2-b]pyran-6-carboxylic acid] as the compound, how does the IC50 read?
Answer: < 1 µM

Question: How did the IC50 turn out when `CN(C(=O)Nc1cccc(C(F)(F)F)c1)c1cc2oc(=O)c(C(=O)O)cc2s1` [Compound 2.011, 2-(1-methyl-3-(3-(trifluoromethyl)phenyl)ureido)-5-oxo-5H-thieno[3,2-b]pyran-6-carboxylic acid] was run?
Answer: < 1 µM

Question: With `CN(C(=O)Nc1ccc(C(F)(F)F)cc1)c1cc2oc(=O)c(C(=O)O)cc2s1` [Compound 2.012, 2-(1-methyl-3-(4-(trifluoromethyl)phenyl)ureido)-5-oxo-5H-thieno[3,2-b]pyran-6-carboxylic acid] as the compound, how does the IC50 read?
Answer: < 1 µM

Question: For `COc1ccc(OC)c(NC(=O)N(C)c2cc3oc(=O)c(C(=O)O)cc3s2)c1` [Compound 2.013, 2-(3-(2,5-dimethoxyphenyl)-1-methylureido)-5-oxo-5H-thieno[3,2-b]pyran-6-carboxylic acid], which IC50 is on record?
Answer: < 1 µM

Question: For `COc1ccc(NC(=O)N(C)c2cc3oc(=O)c(C(=O)O)cc3s2)c(OC)c1` [Compound 2.014, 2-(3-(2,4-dimethoxyphenyl)-1-methylureido)-5-oxo-5H-thieno[3,2-b]pyran-6-carboxylic acid], which IC50 is on record?
Answer: < 1 µM

Question: How did the IC50 turn out when `COc1cc(F)ccc1NC(=O)N(C)c1cc2oc(=O)c(C(=O)O)cc2s1` [Compound 2.015, 2-(3-(4-fluoro-2-methoxyphenyl)-1-methylureido)-5-oxo-5H-thieno[3,2-b]pyran-6-carboxylic acid] was run?
Answer: < 1 µM

Question: Which IC50 does the source give for `COc1cc(NC(=O)N(C)c2cc3oc(=O)c(C(=O)O)cc3s2)ccc1F` [Compound 2.016, 2-(3-(4-fluoro-3-methoxyphenyl)-1-methylureido)-5-oxo-5H-thieno[3,2-b]pyran-6-carboxylic acid] here?
Answer: < 1 µM

Question: For `CCOc1cc(NC(=O)N(C)c2cc3oc(=O)c(C(=O)O)cc3s2)ccc1F` [Compound 2.017, 2-(3-(3-ethoxy-4-fluorophenyl)-1-methylureido)-5-oxo-5H-thieno[3,2-b]pyran-6-carboxylic acid], which IC50 is on record?
Answer: < 1 µM

Question: With `CN(C(=O)Nc1ccc(OC(F)(F)F)cc1)c1cc2oc(=O)c(C(=O)O)cc2s1` [Compound 2.019, 2-(1-methyl-3-(4-(trifluoromethoxy)phenyl)ureido)-5-oxo-5H-thieno[3,2-b]pyran-6-carboxylic acid] as the compound, how does the IC50 read?
Answer: < 1 µM

Question: How did the IC50 turn out when `CN(C(=O)N[C@H]1CC[C@H](C)CC1)c1cc2oc(=O)c(C(=O)O)cc2s1` [Compound 2.020, 2-(1-methyl-3-((1r,4r)-4-methylcyclohexyl)ureido)-5-oxo-5H-thieno[3,2-b]pyran-6-carboxylic acid] was run?
Answer: < 1 µM

Question: For `CCOc1ccc(NC(=O)N(C)c2cc3oc(=O)c(C(=O)O)cc3s2)cc1` [Compound 2.021, 2-(3-(4-ethoxyphenyl)-1-methylureido)-5-oxo-5H-thieno[3,2-b]pyran-6-carboxylic acid], which IC50 is on record?
Answer: < 1 µM

Question: With `COc1cc(NC(=O)N(C)c2cc3oc(=O)c(C(=O)O)cc3s2)cc(OC)c1` [Compound 2.022, 2-(3-(3,5-dimethoxyphenyl)-1-methylureido)-5-oxo-5H-thieno[3,2-b]pyran-6-carboxylic acid] as the compound, how does the IC50 read?
Answer: < 1 µM

Question: `CN(C(=O)Nc1ccc(O)cc1)c1cc2oc(=O)c(C(=O)O)cc2s1` [Compound 2.023, 2-(3-(4-hydroxyphenyl)-1-methylureido)-5-oxo-5H-thieno[3,2-b]pyran-6-carboxylic acid] was tested. Which IC50 did it give?
Answer: < 1 µM

Question: For `CN(C(=O)Nc1ccccc1F)c1cc2oc(=O)c(C(=O)O)cc2s1` [Compound 2.024, 2-(3-(2-fluorophenyl)-1-methylureido)-5-oxo-5H-thieno[3,2-b]pyran-6-carboxylic acid], which IC50 is on record?
Answer: < 1 µM

Question: `CN(C(=O)Nc1cccc(F)c1)c1cc2oc(=O)c(C(=O)O)cc2s1` [Compound 2.025, 2-(3-(3-fluorophenyl)-1-methylureido)-5-oxo-5H-thieno[3,2-b]pyran-6-carboxylic acid] was tested. Which IC50 did it give?
Answer: < 1 µM

Question: With `COc1ccc(NC(=O)N(C)c2cc3oc(=O)c(C(=O)O)cc3s2)cc1C` [Compound 2.026, 2-(3-(4-methoxy-3-methylphenyl)-1-methylureido)-5-oxo-5H-thieno[3,2-b]pyran-6-carboxylic acid] as the compound, how does the IC50 read?
Answer: < 1 µM

Question: `CN(C(=O)NC1CCCC1)c1cc2oc(=O)c(C(=O)O)cc2s1` [Compound 2.027, 2-(3-cyclopentyl-1-methylureido)-5-oxo-5H-thieno[3,2-b]pyran-6-carboxylic acid] was tested. Which IC50 did it give?
Answer: < 1 µM

Question: Which IC50 does the source give for `CN(C(=O)c1ccc(-c2ccccc2)cc1)c1cc2oc(=O)c(C(=O)O)cc2s1` [Compound 2.028, 2-(N-methyl-[1,1′-biphenyl]-4-carboxamido)-5-oxo-5H-thieno[3,2-b]pyran-6-carboxylic acid] here?
Answer: < 1 µM

Question: How did the IC50 turn out when `CN(C(=O)c1ccc2cc(F)ccc2c1)c1cc2oc(=O)c(C(=O)O)cc2s1` [Compound 2.029, 2-(6-fluoro-N-methyl-2-naphthamido)-5-oxo-5H-thieno[3,2-b]pyran-6-carboxylic acid] was run?
Answer: < 1 µM

Question: Which IC50 does the source give for `CN(C(=O)c1cccc(-c2ccccc2)c1)c1cc2oc(=O)c(C(=O)O)cc2s1` [Compound 2.030, 2-(N-methyl-[1,1′-biphenyl]-3-carboxamido)-5-oxo-5H-thieno[3,2-b]pyran-6-carboxylic acid] here?
Answer: < 1 µM

Question: For `CN(C(=O)c1cccc(-c2ccc(F)cc2)c1)c1cc2oc(=O)c(C(=O)O)cc2s1` [Compound 2.031, 2-(4′-fluoro-N-methyl-[1,1′-biphenyl]-3-carboxamido)-5-oxo-5H-thieno[3,2-b]pyran-6-carboxylic acid], which IC50 is on record?
Answer: < 1 µM

Question: `CN(C(=O)c1ccccc1-c1ccc(F)cc1)c1cc2oc(=O)c(C(=O)O)cc2s1` [Compound 2.032, 2-(4′-fluoro-N-methyl-[1,1′-biphenyl]-2-carboxamido)-5-oxo-5H-thieno[3,2-b]pyran-6-carboxylic acid] was tested. Which IC50 did it give?
Answer: < 1 µM

Question: `Cc1ccc(NC(=O)N(C)c2cc3oc(=O)c(C(=O)O)cc3s2)cc1` [Compound 2.033, 2-(1-methyl-3-(p-tolyl)ureido)-5-oxo-5H-thieno[3,2-b]pyran-6-carboxylic acid] was tested. Which IC50 did it give?
Answer: < 1 µM

Question: How did the IC50 turn out when `CN(C(=O)Nc1cccc(Cl)c1)c1cc2oc(=O)c(C(=O)O)cc2s1` [Compound 2.034, 2-(3-(3-chlorophenyl)-1-methylureido)-5-oxo-5H-thieno[3,2-b]pyran-6-carboxylic acid] was run?
Answer: < 1 µM

Question: `Cc1ccccc1NC(=O)N(C)c1cc2oc(=O)c(C(=O)O)cc2s1` [Compound 2.035, 2-(1-methyl-3-(o-tolyl)ureido)-5-oxo-5H-thieno[3,2-b]pyran-6-carboxylic acid] was tested. Which IC50 did it give?
Answer: < 1 µM

Question: Which IC50 does the source give for `Cc1cccc(NC(=O)N(C)c2cc3oc(=O)c(C(=O)O)cc3s2)c1` [Compound 2.036, 2-(1-methyl-3-(m-tolyl)ureido)-5-oxo-5H-thieno[3,2-b]pyran-6-carboxylic acid] here?
Answer: < 1 µM

Question: `CN(C(=O)Nc1ccc(F)cc1F)c1cc2oc(=O)c(C(=O)O)cc2s1` [Compound 2.037, 2-(3-(2,4-difluorophenyl)-1-methylureido)-5-oxo-5H-thieno[3,2-b]pyran-6-carboxylic acid] was tested. Which IC50 did it give?
Answer: < 1 µM

Question: `CN(C(=O)Nc1cccc2c1CCCC2)c1cc2oc(=O)c(C(=O)O)cc2s1` [Compound 2.038, 2-(1-methyl-3-(5,6,7,8-tetrahydronaphthalen-1-yl)ureido)-5-oxo-5H-thieno[3,2-b]pyran-6-carboxylic acid] was tested. Which IC50 did it give?
Answer: < 1 µM

Question: How did the IC50 turn out when `CN(C(=O)Nc1ccc(F)c(F)c1)c1cc2oc(=O)c(C(=O)O)cc2s1` [Compound 2.040, 2-(3-(3,4-difluorophenyl)-1-methylureido)-5-oxo-5H-thieno[3,2-b]pyran-6-carboxylic acid] was run?
Answer: < 1 µM

Question: How did the IC50 turn out when `CN(C(=O)Nc1ccc(Oc2ccccc2Cl)cc1)c1cc2oc(=O)c(C(=O)O)cc2s1` [Compound 2.041, 2-(3-(4-(2-chlorophenoxy)phenyl)-1-methylureido)-5-oxo-5H-thieno[3,2-b]pyran-6-carboxylic acid] was run?
Answer: < 1 µM

Question: `CN(C(=O)Nc1cc(C(F)(F)F)cc(C(F)(F)F)c1)c1cc2oc(=O)c(C(=O)O)cc2s1` [Compound 2.042, 2-(3-(3,5-bis(trifluoromethyl)phenyl)-1-methylureido)-5-oxo-5H-thieno[3,2-b]pyran-6-carboxylic acid] was tested. Which IC50 did it give?
Answer: < 1 µM

Question: How did the IC50 turn out when `CN(C(=O)NC1CCOCC1)c1cc2oc(=O)c(C(=O)O)cc2s1` [Compound 2.043, 2-(1-methyl-3-(tetrahydro-2H-pyran-4-yl)ureido)-5-oxo-5H-thieno[3,2-b]pyran-6-carboxylic acid] was run?
Answer: < 1 µM

Question: For `CN(C(=O)N1CCOCC1)c1cc2oc(=O)c(C(=O)O)cc2s1` [Compound 2.044, 2-(N-methylmorpholine-4-carboxamido)-5-oxo-5H-thieno[3,2-b]pyran-6-carboxylic acid], which IC50 is on record?
Answer: < 1 µM
